Here are results for two compounds from patent publication US20130177531A1, “Inhibitors of Serine Proteases” (Vertex Pharmaceuticals Incorporated, priority 2005, published 2013).

The structures appear in SMILES notation.

Data set [1] can be described thus: Oral bioavailability and isomer interconversion of R and S isomers at C* in rats. Also noted: species or system male Sprague Dawley rats. The following applies: rat; for bioavailability / half-life: 30 mg/kg. On the procedure:
Three groups of male Sprague Dawley rats (n=6-7/group) were orally administered a compound of formula I wherein the mixture comprised about 92% R isomer at position C* and about 8% S isomer at position C*; a mixture that was about 7% R isomer at position C* and about 93% S isomer at position C*; or a compound of formula I wherein the mixture was about 54% R isomer at position C* and about 46% S isomer at position C*; at a nominal dose of 30 mg/kg. Serial blood samples were collected up to 24 hours (hr) post dose. Derived plasma samples (100 μL) were acidified by the addition of 5 μL of formic acid to prevent in vitro interconversion. The determination of concentrations of both the R isomer and the S isomer, at position C*, in plasma and in dose solutions was conducted using a chiral liquid chromatography/mass spectrometry (LC/MS/MS, e.g., LC/tandem mass spectroscopy) method. The formulations of the solid dispersions containing either 10% of the R:S mixture, the R isomer, or the S isomer were prepared according to Table 4. […] The sodium lauryl sulfate and PVP were added to the flask containing the drug solution and were then mixed until dissolved. The mixtures were dried under Roto-vap for about 15 min. After a dry powder was obtained, the solid was then scraped from the flask and transferred to a glass container. The solid was dried for 24 hr at 55° C. in a vacuum oven with nitrogen bleed. The dry solid was then milled by mortar and pestle and was stored in a tightly capped vial. […] Male Sprague Dawley rats (Charles River Laboratories, Kingston, R.I.; n=6-7/group) were used in the study. The day before dosing, the rats were cannulated in the carotid artery for collecting blood samples. […] The experiments were performed with a parallel study design as 6 separate single dose studies as described in Table 5. […] The blood samples were collected in tubes containing potassium EDTA and were centrifuged to plasma within 15 min of collection. A diluted solution of formic acid was prepared by diluting 1 mL of formic acid with 9 mL of water. A total of 5 micro liters (μL) of this diluted formic acid was placed into each plasma tube. An aliquot of plasma (100 μL per tube) was placed into appropriately labeled tubes containing the formic acid, and the acidified plasma was stored frozen at −70° C. until analysis. The acidification step was implemented to prevent in vitro interconversion. Referring to Table 6, several bioavailability parameters for compounds undergoing reversible metabolism could be estimated by the following descriptions.

A further data set can be described thus: in vivo. The following applies: male, Sprague-Dawley, rat, iv.

Protocol for in vivo: The intravenous pharmacokinetics of compounds of formula I were evaluated in rats and dogs. A group of 3 male Sprague-Dawley rats weighing between 250 to 300 g was administered an intravenous bolus dose of 0.95 mg/kg of an S-diastereomer of formula I, in a vehicle consisting of 15% ethanol, 10% dimethyl isosorbide, 35% PEG400 and 40% D5W (5% dextrose in water). Serial blood samples were collected in heparinized tubes at 0 (pre-dose), 0.083, 0.167, 0.25, 0.5, 1, 1.5, 2, 3, 4, 6, and 8 h, post-dose administration. […] For oral studies in rats and dogs, an S-diastereomer compound of formula I was formulated in polyvinylpyrrolidone (PVP) K30 plus 2% sodium lauryl sulfate and then dosed as an oral gavage. A group of 3 male Sprague-Dawley rats (250 to 300 g, Harlan, Md.) was dosed orally with 40 mg/kg of the compound, and a group of 3 male Beagle dogs (10.9-12.0 kg) was administered an oral dose of 13.2 mg/kg of the compound. In both oral studies, blood samples were taken at pre-dose, 0.25, 0.5, 1, 1.5, 2, 3, 4, 6, 8, 12, and 24 h following dose administration. […] Samples obtained from the rat intravenous study were subjected to a chiral liquid chromatography/mass spectrometry (LC/MS/MS) analysis, while samples of all other studies were analyzed using a non-chiral LC/MS/MS method. […]

For the compound `CCC[C@@H](NC(=O)[C@@H]1[C@H]2CCC[C@H]2CN1C(=O)[C@@H](NC(=O)[C@@H](NC(=O)c1cnccn1)C1CCCCC1)C(C)(C)C)C(=O)C(=O)NC1CC1` [R isomer at C*, (1S,3aR,6aS)-2-[(2S)-2-[[(2S)-2-cyclohexyl-1-oxo-2-[(pyrazinylcarbonyl)amino]ethyl]amino]-3,3-dimethyl-1-oxobutyl]-N-[(1R)-1-[2-(cyclopropylamino)-1,2-dioxoethyl]butyl]octahydro-cyclopenta[c]pyrrole-1-carboxamide], in data set [1] (male, Sprague Dawley, in vivo), the “FR+SR, estimated total bioavailability based on combined exposure to the R and S isomers following a dose of the R isomer” value is recorded as “about 98%”; the “mean (±SD) Tmax for the R isomer” value is reported as 2.11 (−1.24) hr; the bioavailability – broadly, dose-corrected exposure relative to a reference, in per cent – was found to be 80.6%; the half-life (in general, how long it takes for the measured level to halve) was 131 min. Further, the “in vivo isomer conversion at position C* (R to S versus S to R)” value in data set [1] is “more prominent”. Moreover, the half-life in “in vivo” was 45 min.
In the case of `CCC[C@H](NC(=O)[C@@H]1[C@H]2CCC[C@H]2CN1C(=O)[C@@H](NC(=O)[C@@H](NC(=O)c1cnccn1)C1CCCCC1)C(C)(C)C)C(=O)C(=O)NC1CC1` [S isomer at C*, (1S,3aR,6aS)-2-[(2S)-2-[[(2S)-2-cyclohexyl-1-oxo-2-[(pyrazinylcarbonyl)amino]ethyl]amino]-3,3-dimethyl-1-oxobutyl]-N-[(1S)-1-[2-(cyclopropylamino)-1,2-dioxoethyl]butyl]octahydro-cyclopenta[c]pyrrole-1-carboxamide], in data set [1] (male, Sprague Dawley, in vivo), the DN AUCINF of the S isomer was determined as 0.14 µg·h/mL, the “mean (±SD) Tmax for the S isomer” value is reported as 2.52 (±2.19) hr, the bioavailability came out at 42.9% and the half-life was 216 min. In “in vivo”, the half-life is 104 min.
